How the values were obtained:
[1] = tested on: Female BALB/c mice; assay: eGFP expression in the liver at 24 hours after intravenous administration of LNP formulations to mouse (ELISA); assay type: in vivo; conditions: LNP N/P 3:1, DMPE-PEG2000
Source text: Female BALB/c mice were purchased (SPF (Beijing) Laboratory Animal Technology Co. Ltd.) and on arrival were caged in groups of 4 on corncob bedding, with normal diet and were provided tap drinking water ad libitum that was purified and autoclaved before being offered to the animal. The environment was maintained at a target temperature of […] and relative humidity of 40-80%, with a 12-hour light/dark cycle. Animals were acclimatised to the housing conditions for at least 7 days prior to any experimental procedures and were approximately 6-8 weeks of age at the start of dosing
Animals were assigned to respective groups such that the mean body weights for each treatment groups will be equal. N=4 for each treatment group.
Formulations 1, 3, 4, 5, and 6 from Example 58 were each dosed intravenously: Each mouse was removed from its cage and restrained, and then dosed with a slow IV bolus of a formulation in the lateral tail vein at a dose […] of 0.3 mg/kg.
All animals were sacrificed 24 hours after dosing and flowing blood sampling the liver for the animals dosed by the IV route and the liver and muscle at the dose site for the IM dosed animals were harvested for eGFP analysis by ELISA.
Additional LNP formulations were prepared according to the procedures described in Example 46. These formulations were tested using the same protocol as described herein. The results of eGFP expression in the liver at 24 hours after intravenous administration of the formulations were summarized in Tables 3, 4, 5 and 6 below.

[2] = mRNA encapsulation efficiency of LNP formulations (Quant-it Ribogreen assay with Triton-X100); assay type: physicochemical; conditions: N/P ratio 3:1, DMPE-PEG2000
Method: (§1) A solution of eGFP mRNA (purchased from TriLink Biotechnologies) in citrate buffer was prepared by mixing mRNA dissolved in MilliQ-water, 100 mM citrate buffer (pH 3) and MilliQ-water to give a solution of 50 mM citrate. Lipid solution in ethanol (99.5%) was prepared with four different lipid components: ionizable lipid (see Table 1); cholesterol (Sigma-Aldrich); DSPC (distearoyl phosphatidyl choline, Avanti Polar Lipids Inc); and a polymer-conjugated lipid (see Table 1). The ratio of lipids in all experiments was ionizable lipid/cholesterol/DSPC/polymer-conjugated lipid (50/38.5/10/1.5 mol %). The total concentration of lipids in all experiments was 12.5 mM.
(§2) The mRNA and lipid solutions were mixed in a NanoAssemblr (Precision Nanosystems, Vancouver, BC, Canada) microfluidic mixing system at a mixing ratio of Aq:EtOH=3:1 and a constant flow rate of 12 mL/min. The mRNA in citrate buffer solution was prepared such that, at the time of mixing the ratio between the nitrogen atoms on the ionizable lipid and phosphorus atoms (N/P ratio) on the mRNA chain was either 3:1 or 6:1 (see Table 1).
The final mRNA concentration and encapsulation efficiency percentage (% EE) was measured by Quant-it Ribogreen Assay Kit (ThermoFischer Scientific Inc.) using Triton-X100 to disrupt the LNPs. The mRNA encapsulation efficiency was determined according to the following equation: […]

[3] = LNP particle size by dynamic light scattering (Zetasizer Nano ZS); assay type: physicochemical; conditions: N/P ratio 3:1, DMPE-PEG2000
Method: as §1, §2
The first 0.2-0.35 mL and the last 0.05-0.1 mL of the LNP suspension prepared were discarded while the rest of the volume was collected as the sample fraction. The size of the mRNA lipid nanoparticles was determined by dynamic light scattering measurements using a Zetasizer Nano ZS from Malvern Instruments Ltd, giving directly the z-average particle diameter. The number-weighted particle size distributions and averages were calculated using a particle refractive index of 1.45.

## CCCCCCCCC(CCCCCCCC)OC(=O)CCCCCCCC(CCCCCCCC(=O)OCCC(C)CCCCCC)NCC1CCOCC1 (centres unmarked) [Compound 43, 1-(heptadecan-9-yl) 17-(3-methylnonyl) 9-(((tetrahydro-2H-pyran-4-yl)methyl)amino)heptadecanedioate]
[1]; Table 5, 0.3 mg/kg
  Liver eGFP protein (ng/g tissue): 2590.9 ng/g tissue
[2]; Table 5
  % EE: 95%
[3]; Table 5
  <d>N (nm): 62 nm
  <d>Z (nm): 79 nm

## CCCCCCCCC(CCCCCCCC)OC(=O)CCCCCCCC(CCCCCCCC(=O)OCCC(CC)CCCCCC)NC1CC2(COC2)C1 (centres unmarked) [Compound 44, 1-(3-ethylnonyl) 17-(heptadecan-9-yl) 9-((2-oxaspiro[3.3]heptan-6-yl)amino)heptadecanedioate]
[1]; Table 5, 0.3 mg/kg
  Liver eGFP protein (ng/g tissue): 6582.0 ng/g tissue
[2]; Table 5
  % EE: 97%
[3]; Table 5
  <d>N (nm): 65 nm
  <d>Z (nm): 80 nm

## CCCCCC(CCCCC)CCOC(=O)CCCCCC(CCCCCC(=O)OCCC(CCCCC)CCCCC)NC1CCOCC1 [Compound 45, bis(3-pentyloctyl) 7-((tetrahydro-2H-pyran-4-yl)amino)tridecanedioate]
[1]; Table 4, 0.3 mg/kg
  Liver eGFP protein (ng/g tissue): 9082.2 ng/g tissue
[2]; Table 4
  % EE: 88%
[3]; Table 4
  <d>N (nm): 60 nm
  <d>Z (nm): 75 nm

## CCCCCCCCC(CCCCCCCC)OC(=O)CCCCCCCC(CCCCCCCC(=O)OC(CC)CCCCC)NC1CC2(COC2)C1 (centres unmarked) [Compound 46, 1-(heptadecan-9-yl) 17-(octan-3-yl) 9-((2-oxaspiro[3.3]heptan-6-yl)amino)heptadecanedioate]
[1]; Table 6, 0.3 mg/kg
  Liver eGFP protein (ng/g tissue): 15932.1 ng/g tissue
[2]; Table 6
  % EE: 93%
[3]; Table 6
  <d>N (nm): 54 nm
  <d>Z (nm): 73 nm

## CCCCCCCCC(CCCCCCCC)OC(=O)CCCCCCCC(CCCCCCCC(=O)OC(CC)CCCC)NCC1CCOC1 (centres unmarked) [Compound 47, 1-(heptadecan-9-yl) 17-(heptan-3-yl) 9-(((tetrahydrofuran-3-yl)methyl)amino)heptadecanedioate]
[1]; Table 6, 0.3 mg/kg
  Liver eGFP protein (ng/g tissue): 13883.6 ng/g tissue
[2]; Table 6
  % EE: 89%
[3]; Table 6
  <d>N (nm): 62 nm
  <d>Z (nm): 82 nm

## CCCCCCCCC(CCCCCCCC)OC(=O)CCCCCCCC(CCCCCCCC(=O)OC(C)CCCCC)NCC1CCOC1 (centres unmarked) [Compound 48, 1-(heptadecan-9-yl) 17-(heptan-2-yl) 9-(((tetrahydrofuran-3-yl)methyl)amino)heptadecanedioate]
[1]; Table 6, 0.3 mg/kg
  Liver eGFP protein (ng/g tissue): 14749.9 ng/g tissue
[2]; Table 6
  % EE: 90%
[3]; Table 6
  <d>N (nm): 60 nm
  <d>Z (nm): 80 nm

## CCCCCC(CCCCC)CCOC(=O)CCCCCCCCCC(CCCCC(=O)OCCC(CCCCC)CCCCC)NC1CC2(COC2)C1 (centres unmarked) [Compound 49, bis(3-pentyloctyl) 6-((2-oxaspiro[3.3]heptan-6-yl)amino)hexadecanedioate]
[1]; Table 6, 0.3 mg/kg
  Liver eGFP protein (ng/g tissue): 3934.6 ng/g tissue
[2]; Table 6
  % EE: 94%
[3]; Table 6
  <d>N (nm): 55 nm
  <d>Z (nm): 72 nm

## CCCCCCCCC(CCC)OC(=O)CCCCCCCC(CCCCCCCC(=O)OC(CCCCCCCC)CCCCCCCC)NC1CC2(COC2)C1 (centres unmarked) [Compound 50, 1-(dodecan-4-yl) 17-(heptadecan-9-yl) 9-((2-oxaspiro[3.3]heptan-6-yl)amino)heptadecanedioate]
[1]; Table 6, 0.3 mg/kg
  Liver eGFP protein (ng/g tissue): 7410.4 ng/g tissue
[2]; Table 6
  % EE: 97%
[3]; Table 6
  <d>N (nm): 51 nm
  <d>Z (nm): 65 nm

## CCCCCCCCC(CCCCCCCC)OC(=O)CCCCCCCC(CCCCCCCC(=O)OCC1CC1CCCCCC)NCC1COC1 (centres unmarked) [Compound 51, 1-(heptadecan-9-yl) 17-((2-hexylcyclopropyl)methyl) 9-((oxetan-3-ylmethyl)amino)heptadecanedioate]
[1]; Table 6, 0.3 mg/kg
  Liver eGFP protein (ng/g tissue): 3473.8 ng/g tissue
[2]; Table 6
  % EE: 95%
[3]; Table 6
  <d>N (nm): 53 nm
  <d>Z (nm): 67 nm

## CCCCCCCCC(CCCCCCCC)OC(=O)CCCCCCCC(CCCCCCCC(=O)OCC1CC1CCCCCC)NCC1CCOC1 (centres unmarked) [Compound 52, 1-(heptadecan-9-yl) 17-((2-hexylcyclopropyl)methyl) 9-(((tetrahydrofuran-3-yl)methyl)amino)heptadecanedioate]
[1]; Table 6, 0.3 mg/kg
  Liver eGFP protein (ng/g tissue): 4701.7 ng/g tissue
[2]; Table 6
  % EE: 95%
[3]; Table 6
  <d>N (nm): 55 nm
  <d>Z (nm): 71 nm

## CCCCCCCCC(CCCCCCCC)OC(=O)CCCCCCCC(CCCCCCCC(=O)OC(C)(C)CCCCCCCC)NC1CC2(COC2)C1 (centres unmarked) [Compound 53, 1-(heptadecan-9-yl) 17-(2-methyldecan-2-yl) 9-((2-oxaspiro[3.3]heptan-6-yl)amino)heptadecanedioate]
[1]; Table 6, 0.3 mg/kg
  Liver eGFP protein (ng/g tissue): 6947.2 ng/g tissue
[2]; Table 6
  % EE: 96%
[3]; Table 6
  <d>N (nm): 50 nm
  <d>Z (nm): 65 nm

## CCCCCCCCCC(=O)OCCCCCCCC(CCCCCCCC(=O)OC(CCCCCCCC)CCCCCCCC)NC1CC2(COC2)C1 (centres unmarked) [Compound 54, Heptadecan-9-yl 9-((2-oxaspiro[3.3]heptan-6-yl)amino)-16-(decanoyloxy)hexadecanoate]
[1]; Table 6, 0.3 mg/kg
  Liver eGFP protein (ng/g tissue): 10704.5 ng/g tissue
[2]; Table 6
  % EE: 95%
[3]; Table 6
  <d>N (nm): 62 nm
  <d>Z (nm): 81 nm

## CCCCCCCCC(CCCCCCCC)OC(=O)CCCCCCCC(CCCCCCCCCC(=O)OC(C)CCCCCC)NC1CC2(COC2)C1 (centres unmarked) [Compound 55, 1-(heptadecan-9-yl) 19-(octan-2-yl) 9-((2-oxaspiro[3.3]heptan-6-yl)amino)nonadecanedioate]
[1]; Table 6, 0.3 mg/kg
  Liver eGFP protein (ng/g tissue): 18695.5 ng/g tissue
[2]; Table 6
  % EE: 93%
[3]; Table 6
  <d>N (nm): 62 nm
  <d>Z (nm): 77 nm

## CCCCCCCCCCC(C)OC(=O)CCCCCC(CCCCCCCC(=O)OC(CCCCCCCC)CCCCCCCC)NC1CC2(COC2)C1 (centres unmarked) [Compound 56, 1-(dodecan-2-yl) 15-(heptadecan-9-yl) 7-((2-oxaspiro[3.3]heptan-6-yl)amino)pentadecanedioate]
[1]; Table 6, 0.3 mg/kg
  Liver eGFP protein (ng/g tissue): 10270.4 ng/g tissue
[2]; Table 6
  % EE: 96%
[3]; Table 6
  <d>N (nm): 58 nm
  <d>Z (nm): 73 nm

— patent publication US20230181482A1, “LIPIDS FOR DELIVERY OF NUCLEIC ACID SEGMENTS” (AstraZeneca AB, priority 2021, published 2023)
